Results on five compounds are retold here after ChEMBL document CHEMBL1126054, “Structure and molecular modeling of GABAA receptor antagonists” (J Med Chem, 1992).

The target in test [1] is GABA-A receptor; anion channel. Nature of the test: (§1) Displacement of [3H]GABA from gamma-aminobutyric-acid A (GABA-A) receptor. Type of test: protein-complex assay, Rattus norvegicus. Background: Loss of bound radioactivity is the signal in a displacement assay; it reports binding, not function.
Test [2] has as its target GABA-A receptor; anion channel. As to the kind of experiment: Displacement of [3H]muscimol from Gamma-aminobutyric acid A (GABA-A) receptor. Type of test: protein-complex assay, Rattus norvegicus.
Test [3] is described as follows: as §1. The arrangement: species or system Rattus norvegicus.

`COc1cc2c3cc1Oc1cc(ccc1O)C[C@@H]1c4c(cc(OC)c(O)c4Oc4ccc(cc4)C[C@@H]3N(C)CC2)CC[N+]1(C)C` showed an IC50 in test [1] of 58 µM.

In test [1], `Oc1onc2c1CCNCC2` showed an IC50 of 16 µM.

Compound `CC12CC(=O)C3C(CCC4CC(O)CCC43C)C1CC(=N)N2` (stereo not given) displayed an IC50 in test [1] of 0.02 µM.

Regarding `c1ccc2c(c1)Cc1ccccc1-n1c-2nnc1N1CCNCC1` [PITRAZEPINE], the IC50 in test [2] turned out to be 0.24 µM.

In test [3], `O=C1C=C2C=C[C@@H]3C[C@@]2(O1)[C@H]1CCCCN31` [SECURININE] displayed an IC50 of 50 µM.

A word on the IC50: it is the concentration needed to halve the response being measured. A higher IC50 goes with weaker potency.
